In patent publication US7989628B2, “2-aminoquinolines” (Hoffmann-La Roche Inc., priority 2008, dated 2011):

system: not given; assay: not given; conditions: not given

melting point [°C] | Compound
161 | COc1ccccc1CNc1ccc2c(C(=N)NO)cccc2n1 [Example 32, N-Hydroxy-2-(2-methoxy-benzylamino)-quinoline-5-carboxamidine]

biological target: T1, recombinant human 5-HT5A receptor (Homo sapiens, UniProt P47898); assay: [3H]LSD radioligand binding assay; conditions: [3H]LSD approx. 1 nM; membranes from HEK-EBNA cells transiently expressing 5-HT5A; Ki by Cheng-Prussoff equation
T1 construct: expressed in transfected cells; host or cells: HEK-EBNA (Human Embryonic Kidney-EBNA) cells, transient cDNA expression; membranes
T1 sequence (P47898 whole entry): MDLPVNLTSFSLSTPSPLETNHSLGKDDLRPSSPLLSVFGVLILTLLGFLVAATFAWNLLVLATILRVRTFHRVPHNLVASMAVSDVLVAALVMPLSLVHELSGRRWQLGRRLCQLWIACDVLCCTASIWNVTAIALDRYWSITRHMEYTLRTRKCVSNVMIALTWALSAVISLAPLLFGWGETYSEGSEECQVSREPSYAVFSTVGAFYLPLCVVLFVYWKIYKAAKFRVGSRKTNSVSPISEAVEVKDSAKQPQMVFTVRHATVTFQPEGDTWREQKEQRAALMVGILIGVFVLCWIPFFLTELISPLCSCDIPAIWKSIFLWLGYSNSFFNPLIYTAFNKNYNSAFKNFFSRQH
Experimental: A [^3H]LSD radioligand binding assay was used to determine the affinity of the compounds for the recombinant human 5-HT5A receptor, in membranes from transiently (cDNA) expressed 5-HT5A receptors in Human Embryonic Kidney-EBNA (HEK-EBNA) cells. Assay buffer consisted of Tris (50 mM) buffer containing 1 mM EGTA, 10 mM MgCl2 (pH 7.4) and 10 μM pargyline. The binding assay was carried out in 96-well-plates in the presence of [^3H]LSD (approximately 1 nM), approximately 2 μg/well of membrane protein, and 0.5 mg of Ysi-poly-1-lysine SPA beads in a final volume of 200 μl of buffer. Non-specific binding was defined using methiothepin 2 μM. Compounds were tested at 10 concentrations. All assays were conducted in duplicate and repeated at least two times. Assay plates were incubated for 120 min at room temperature before centrifugation. Bound ligand was determined using a Packard Topcount scintillation counter. IC50 values were calculated using a non-linear curve fitting program and Ki values calculated using the Cheng-Prussoff equation.

Ki [nM] | Compound
49.4 | CC1Cc2cccc(Nc3ccc4c(N)cccc4n3)c2O1 (stereo not shown) [Example 15, N^2-(2-Methyl-2,3-dihydro-benzofuran-7-yl)-quinoline-2,5-diamine]
44.4 | CC1(C)Cc2cccc(Nc3ccc4c(N)cccc4n3)c2O1 [Example 16, N^2-(2,2-Dimethyl-2,3-dihydro-benzofuran-7-yl)-quinoline-2,5-diamine]
71.2 | Nc1cccc2nc(Nc3cccc(C4CC4)c3)ccc12 [Example 18, N^2-(3-Cyclopropyl-phenyl)-quinoline-2,5-diamine]
60.4 | Cc1ccc(CNc2ccc3c(NS(=O)(=O)N(C)C)cccc3n2)o1 [Example 20, N,N-dimethyl-N′-(2-{[(5-methyl-2-furyl)methyl]amino}quinolin-5-yl)sulfamide]
101 | CC1Cc2cccc(Nc3ccc4c(NS(=O)(=O)N(C)C)cccc4n3)c2O1 (stereo not shown) [Example 21, N,N-dimethyl-N′-{2-[(2-methyl-2,3-dihydro-1-benzofuran-7-yl)amino]quinolin-5-yl}sulfamide]
61.8 | Cc1ccc(CNc2ccc3c(CCCCO)cccc3n2)o1 [Example 26, 4-{2-[(5-Methyl-furan-2-ylmethyl)-amino]-quinolin-5-yl}-butan-1-ol]
219 | COc1ccccc1CNc1ccc2c(OCCSC)cccc2n1 [Example 30, (2-Methoxy-benzyl)-[5-(2-methylsulfanyl-ethoxy)-quinolin-2-yl]-amine]
44.7 | COc1ccccc1CNc1ccc2c(C(=N)NO)cccc2n1 [Example 32, N-Hydroxy-2-(2-methoxy-benzylamino)-quinoline-5-carboxamidine]

Second part, the compound before the results:

Compound | Ki [nM]
COc1ccccc1CNc1ccc2c(N)cccc2n1 [Example 1, N^2-(2-Methoxy-benzyl)-quinoline-2,5-diamine] | 27.3
Cc1ccc(CNc2ccc3c(N)cccc3n2)o1 [Example 2, N^2-(5-Methyl-furan-2-ylmethyl)-quinoline-2,5-diamine] | 83.8
Cc1ccc(CNc2ccc3c(NC4CCOCC4)cccc3n2)o1 [Example 7, N^2-(5-Methyl-furan-2-ylmethyl)-N^5-(tetrahydro-pyran-4-yl)-quinoline-2,5-diamine] | 92
CSCCNc1cccc2nc(NCc3ccc(C)o3)ccc12 [Example 9, N^2-(5-Methyl-furan-2-ylmethyl)-N^5-(2-methylsulfanyl-ethyl)-quinoline-2,5-diamine] | 81.2
Cc1ccc(CNc2ccc3c(NCC[S+](C)[O-])cccc3n2)o1 (stereo not shown) [Example 10, N^5-(2-Methanesulfinyl-ethyl)-N^2-(5-methyl-furan-2-ylmethyl)-quinoline-2,5-diamine] | 99.3
Nc1cccc2nc(NCc3ccccc3OC(F)(F)F)ccc12 [Example 13, N^2-(2-Trifluoromethoxy-benzyl)-quinoline-2,5-diamine] | 93.9
Cc1cc2cccc(Nc3ccc4c(N)cccc4n3)c2o1 [Example 14, N^2-(2-Methyl-benzofuran-7-yl)-quinoline-2,5-diamine] | 112
